Where two headings read alike, the source gives them in different places. Numbered stars: 1 amine (or outer) side, 2 acyl side, 3 side chain; on linkers, the order of the positions; unused ones are H or OH. Bridge positions count the residues as written; N and C are the ends. Square brackets hold non-standard residues; d marks the D form. Peptide text beside a SMILES is read from it. * marks the point of attachment. X1 = NCCNCC(CNCCN)C(=O)N1CCN(CC(=O)NCCCOCCOCCOCCCN*)CC1; mXylylene = c1cc(C[*:1])cc(C[*:2])c1; Tic = O=C(O)[C@@H]1Cc2ccccc2CN1; Suc = O=C(CCC(=O)[*:2])[*:1]; Nle = CCCC[C@H](N)C(=O)O; βAla = NCCC(=O)O
What was measured:
[1] = Plasma stability assay, mouse plasma; type: in vitro ADME; details: mouse, plasma; 4 h incubation, 37° C.; read-out: % intact compound remaining after incubation, Mouse plasma
[2] = molecular target: T1, FAP-expressing human WI-38 fibroblasts (Homo sapiens, UniProt Q12884); assay: Competitive FACS binding assay; details: for pIC50 Category (FACS): competition with 3 nM Cy5-labeled compound, 4° C., 1 hour, WI-38 fibroblasts
T1 construct: FAP-expressing human WI-38 fibroblasts (ECACC) were cultured in EMEM; host or cells: WI-38 human fibroblasts
Description: Cells were analyzed in an Attune NxT flow cytometer. […] […].
Cells were analyzed in an Attune NxT flow cytometer. […]

HEK-FAP tumor [3] = details: ^68Ga-labeled, PET/CT
Human recombinant FAP [4] = molecular target: T2, Human recombinant FAP (Homo sapiens, UniProt Q12884); assay: FRET-based FAP protease activity assay; type: biochemical; design: purchased R&D systems 3715-SE; details: for IC50: pIC50 Category (activity), Recombinant human FAP; for pIC50 Category (activity): FRET-peptide substrate, 37° C.
Human recombinant FAP [5] = molecular target: T2, Human recombinant FAP; assay: Surface plasmon resonance (Biacore) assay; type: binding; details: for pKD Category: Biacore, SCK mode, 25° C.
[6] = Radiochemical purity by HPLC of ^99mTc-labeled compounds; type: physicochemical; details: 99Tc-labeled compounds
Description: 100-500 MBq of ^99mTcO4 (in saline) were mixed with 11 μl of 0.5 M phosphate buffer pH 11.5-12.0 and 1.1 μl of 0.1 M trisodium citrate per 100 μl radionuclide solution. […] The mixture was incubated for 30 min at 25-50′° C. At the end of the incubation time, the mixture was neutralized with 3.0 μl 1 M HCl per 10 μl phosphate buffer and TWEEN-20 was added at a final concentration of 0.100.

HEK-FAP tumor [7] = details: for uptake BPS 1 h / uptake BPS 3 h / uptake BPS 6 h / uptake Tumor 1 h / uptake Tumor 3 h / uptake Tumor 6 h / uptake Kidneys 1 h / uptake Kidneys 3 h / uptake Kidneys 6 h: ^99mTc-labeled, SPECT/CT; for uptake BPS 1 h / uptake BPS 3 h / uptake BPS 6 h: BPS (blood pool surrogate); for uptake BPS 1 h / uptake Tumor 1 h / uptake Kidneys 1 h: 1 h post tracer injection; for uptake BPS 3 h / uptake Tumor 3 h / uptake Kidneys 3 h: 3 h post tracer injection; for uptake BPS 6 h / uptake Tumor 6 h / uptake Kidneys 6 h: 6 h post tracer injection; for uptake Tumor 1 h / uptake Tumor 3 h / uptake Tumor 6 h: HEK-FAP tumor; for uptake in healthy tissues (biodistribution): ^99mTc-labelled, 1-6 h post injection, compared to 3BP-4219 and 3BP-4221
in vivo = details: swiss nude, mouse, iv

T2 sequence (Q12884 whole entry): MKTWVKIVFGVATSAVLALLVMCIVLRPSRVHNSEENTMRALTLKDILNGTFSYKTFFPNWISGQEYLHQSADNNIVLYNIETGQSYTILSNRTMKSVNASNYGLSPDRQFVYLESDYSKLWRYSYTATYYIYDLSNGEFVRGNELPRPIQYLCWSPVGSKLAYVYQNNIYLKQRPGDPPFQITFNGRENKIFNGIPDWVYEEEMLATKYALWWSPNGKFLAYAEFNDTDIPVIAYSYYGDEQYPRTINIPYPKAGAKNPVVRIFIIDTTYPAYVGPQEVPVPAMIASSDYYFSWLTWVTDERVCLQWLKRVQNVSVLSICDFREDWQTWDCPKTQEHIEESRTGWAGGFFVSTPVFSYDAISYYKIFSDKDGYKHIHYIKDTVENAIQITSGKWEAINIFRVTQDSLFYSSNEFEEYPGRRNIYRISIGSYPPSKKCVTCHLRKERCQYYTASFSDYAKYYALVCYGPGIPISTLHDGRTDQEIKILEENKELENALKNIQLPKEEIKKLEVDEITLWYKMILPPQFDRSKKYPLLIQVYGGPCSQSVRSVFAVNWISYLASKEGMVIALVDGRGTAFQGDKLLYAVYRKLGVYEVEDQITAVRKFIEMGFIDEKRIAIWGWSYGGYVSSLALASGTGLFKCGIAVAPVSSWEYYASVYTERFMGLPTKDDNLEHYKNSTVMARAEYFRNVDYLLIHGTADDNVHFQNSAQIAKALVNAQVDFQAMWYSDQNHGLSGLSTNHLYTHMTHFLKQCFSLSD
T1 sequence (Q12884 whole entry): as above

| Compound | IC50 [2] | IC50 (Human recombinant FAP [4]) | HPLC Area % at end of synthesis [6] | Kd (Human recombinant FAP [5]) | tissue uptake at 1 h (in vivo; blood pool surrogate (BPS)) | tissue uptake at 3 h (in vivo; blood pool surrogate (BPS)) | tissue uptake at 6 h (in vivo; blood pool surrogate (BPS)) | tissue uptake at 1 h (in vivo; kidneys) | tissue uptake at 3 h (in vivo; kidneys) | tissue uptake at 6 h (in vivo; kidneys) | tissue uptake at 1 h (in vivo; tumor) | tissue uptake at 3 h (in vivo; tumor) | tissue uptake at 6 h (in vivo; tumor) | HPLC Area % appr. 4 h post end of synthesis [6] | other results |
| --- | --- | --- | --- | --- | --- | --- | --- | --- | --- | --- | --- | --- | --- | --- | --- |
| CSCC[C@H](NC(C)=O)C(=O)N[C@H]1CSCc2cccc(c2)CSC[C@@H](C(=O)N[C@@H](CC(=O)O)C(=O)N[C@@H](Cc2c[nH]cn2)C(=O)N2Cc3ccccc3C[C@H]2C(=O)N[C@@H](CCCNC(=N)N)C(=O)N[C@@H](CC(=O)O)C(N)=O)NC(=O)[C@H](Cc2ccccc2)NC(=O)[C@H](CCC(=O)O)NC(=O)[C@H]([C@@H](C)O)NC(=O)[C@@H]2CCCN2C(=O)[C@@H]2CCCN2C1=O [3BP-3189, Ac-Met-[Cys(3MeBn)-Pro-Pro-Thr-Glu-Phe-Cys]-Asp-His-Tic-Arg-Asp-NH2] (Ac-MCPPTEFCDH[Tic]RD-NH2; linker 2-8 via mXylylene) |  |  |  |  |  |  |  |  |  |  |  |  |  |  | remaining at 4 h, 9.8 µM [1]: 100% |
| CSCC[C@@H](NC(C)=O)C(=O)N[C@H]1CSCc2cccc(c2)CSC[C@@H](C(=O)N[C@@H](CC(=O)O)C(=O)N[C@@H](Cc2c[nH]cn2)C(=O)N[C@@H](Cc2ccccc2)C(=O)N[C@@H](CCCNC(=N)N)C(=O)N[C@@H](CC(=O)O)C(N)=O)NC(=O)[C@H](Cc2ccccc2)NC(=O)[C@H](CCC(=O)O)NC(=O)[C@H]([C@@H](C)O)NC(=O)[C@@H]2CCCN2C(=O)[C@@H]2CCCN2C1=O [3BP-3187, Ac-met-[Cys(3MeBn)-Pro-Pro-Thr-Glu-Phe-Cys]-Asp-His-Phe-Arg-Asp-NH2] (Ac-[dM]CPPTEFCDHFRD-NH2; linker 2-8 via mXylylene) |  |  |  |  |  |  |  |  |  |  |  |  |  |  | remaining at 4 h, 9.8 µM [1]: 100% |
| CCCC[C@H](NC(=O)CCC(=O)NCCCOCCOCCOCCCNC(=O)CCC(C(=O)O)N1CCN(CC(=O)O)CCN(CC(=O)O)CC1)C(=O)N[C@H]1CSCc2cccc(c2)CSCC(C(=O)O)NC(=O)[C@H](Cc2ccccc2)NC(=O)[C@H](CCC(N)=O)NC(=O)[C@H]([C@@H](C)O)NC(=O)[C@@H]2CCCN2C(=O)[C@@H]2CCCN2C1=O (stereo partly drawn) [3BP-4713, NODAGA-Ttds-Nle-[Cys(3MeBn)-Pro-Pro-Thr-Gln-Phe-Cys]-OH] | 10 to 79.4 nM | 10 to 79.4 nM |  |  |  |  |  |  |  |  |  |  |  |  | uptake BPS 0.25 h (HEK-FAP tumor [3]; BPS (blood pool surrogate), 0.25 h post tracer injection): 2.27 % ID/g; uptake BPS 1 h (HEK-FAP tumor [3]; BPS (blood pool surrogate), 1 h post tracer injection): 0.77 % ID/g; uptake BPS 3 h (HEK-FAP tumor [3]; BPS (blood pool surrogate), 3 h post tracer injection): 0.19 % ID/g; uptake Tumor 0.25 h (HEK-FAP tumor [3]; HEK-FAP tumor, 0.25 h post tracer injection): 3.46 % ID/g; uptake Tumor 1 h (HEK-FAP tumor [3]; HEK-FAP tumor, 1 h post tracer injection): 3.90 % ID/g; uptake Tumor 3 h (HEK-FAP tumor [3]; HEK-FAP tumor, 3 h post tracer injection): 3.21 % ID/g; uptake Kidneys 0.25 h (HEK-FAP tumor [3]; kidneys, 0.25 h post tracer injection): 9.05 % ID/g; uptake Kidneys 1 h (HEK-FAP tumor [3]; kidneys, 1 h post tracer injection): 2.50 % ID/g; uptake Kidneys 3 h (HEK-FAP tumor [3]; kidneys, 3 h post tracer injection): 0.82 % ID/g |
| N4Ac-PEG6-Nle-[Cys-(3MeBn)-Pro-Pro-Thr-Glu-Phe-Cys]-OH [3BP-4221] |  |  | 99.0% |  |  |  |  |  |  |  |  |  |  |  | pIC50 Category (FACS) [2]: B (category B for pIC50 values between 7.1 and 8.0); pKD Category (Human recombinant FAP [5]): A (Category A stands for pKD values >8.0); HPLC Area % appr. 4 h post end of synthesis ([6]; (5.5 h)): 97.4%; uptake BPS 1 h (HEK-FAP tumor [7]): 0.54 % ID/g; uptake BPS 3 h (HEK-FAP tumor [7]): 0.27 % ID/g; uptake BPS 6 h (HEK-FAP tumor [7]): 0.16 % ID/g; uptake Tumor 1 h (HEK-FAP tumor [7]): 8.51 % ID/g; uptake Tumor 3 h (HEK-FAP tumor [7]): 8.32 % ID/g; uptake Tumor 6 h (HEK-FAP tumor [7]): 7.97 % ID/g; uptake Kidneys 1 h (HEK-FAP tumor [7]): 4.74 % ID/g; uptake Kidneys 3 h (HEK-FAP tumor [7]): 3.73 % ID/g; uptake Kidneys 6 h (HEK-FAP tumor [7]): 2.56 % ID/g; pIC50 Category (activity) (Human recombinant FAP [4]): B (category B for pIC50 values between 7.1 and 8.0) |
| CCCC[C@H](NC(=O)CCC(=O)NCCCOCCOCCOCCCNC(=O)CN1CCN(C(=O)C(CNCCN)CNCCN)CC1)C(=O)N[C@H]1CSCc2cncc(c2)CSC[C@@H](C(=O)NCCC(=O)O)NC(=O)[C@H](Cc2ccccc2)NC(=O)[C@H](CCC(N)=O)NC(=O)[C@H]([C@@H](C)O)NC(=O)[C@@H]2CCCN2C(=O)[C@@H]2CCCN2C1=O [3BP-4961, N4Ac-PPAc-Ttds-Nle-[Cys(3Lut)-Pro-Pro-Thr-Gln-Phe-Cys]-Bal-OH] | < 10 nM | < 10 nM | 98.0% | < 10 nM | 0.47 %ID/g | 0.31 %ID/g | 0.11 %ID/g | 2.36 %ID/g | 1.12 %ID/g | 0.77 %ID/g | 10.5 %ID/g | 11.4 %ID/g | 12.3 %ID/g |  | uptake in healthy tissues (biodistribution) (HEK-FAP tumor [7]): decreased uptake in healthy tissues over time |
| CCCC[C@H](NC(=O)CCC(=O)NCCCOCCOCCOCCCNC(=O)CN1CCN(C(=O)C(CNCCN)CNCCN)CC1)C(=O)N[C@H]1CSCc2cccc(c2)CSCC(C(=O)O)NC(=O)[C@H](Cc2ccccc2)NC(=O)[C@H](CCC(N)=O)NC(=O)[C@H]([C@@H](C)O)NC(=O)[C@@H]2CCCN2C(=O)[C@@H]2CCCN2C1=O (stereo partly drawn) [3BP-4541, N4Ac-PPAc-Ttds-Nle-[Cys(3MeBn)-Pro-Pro-Thr-Gln-Phe-Cys]-OH] | 10 to 79.4 nM | 10 to 79.4 nM | 95.8% | 10 to 79.4 nM | 0.48 %ID/g | 0.2 %ID/g | 0.06 %ID/g | 4.02 %ID/g | 2.41 %ID/g | 1.01 %ID/g | 8.81 %ID/g | 9.76 %ID/g | 7.48 %ID/g | 89.7% | uptake in healthy tissues (biodistribution) (HEK-FAP tumor [7]): decreased uptake in healthy tissues over time |
| CCCC[C@H](NC(=O)CCC(=O)NCCCOCCOCCOCCCNC(=O)CN1CCN(C(=O)C(CNCCN)CNCCN)CC1)C(=O)N[C@H]1CSCc2cccc(c2)CSC[C@@H](C(=O)NCCC(=O)O)NC(=O)[C@H](Cc2ccccc2)NC(=O)[C@H](CCC(=O)O)NC(=O)[C@H]([C@@H](C)O)NC(=O)[C@@H]2CCCN2C(=O)[C@@H]2CCCN2C1=O [3BP-4784, N4Ac-PPAc-Ttds-Nle-[Cys(3MeBn)-Pro-Pro-Thr-Glu-Phe-Cys]-Bal-OH] ({X1-Suc}-[Nle]CPPTEFC[βAla]-OH; linker 2-8 via mXylylene) | < 10 nM | < 10 nM | 96.6% | < 10 nM | 0.9 %ID/g | 0.63 %ID/g | 0.38 %ID/g | 1.61 %ID/g | 1.23 %ID/g | 1.01 %ID/g | 7.65 %ID/g | 7.43 %ID/g | 7.44 %ID/g | 94.9% |  |
| N4Ac-Ttds-Nle-[Cys-(3MeBn)-Pro-Pro-Thr-Gln-Phe-Cys]-OH [3BP-4219] |  |  | 94.8% |  |  |  |  |  |  |  |  |  |  |  | pIC50 Category (FACS) [2]: B (category B for pIC50 values between 7.1 and 8.0); pKD Category (Human recombinant FAP [5]): A (Category A stands for pKD values >8.0); HPLC Area % appr. 4 h post end of synthesis ([6]; (5.5 h)): 93.8%; uptake BPS 1 h (HEK-FAP tumor [7]): 0.21 % ID/g; uptake BPS 3 h (HEK-FAP tumor [7]): 0.09 % ID/g; uptake BPS 6 h (HEK-FAP tumor [7]): 0.07 % ID/g; uptake Tumor 1 h (HEK-FAP tumor [7]): 6.80 % ID/g; uptake Tumor 3 h (HEK-FAP tumor [7]): 7.62 % ID/g; uptake Tumor 6 h (HEK-FAP tumor [7]): 4.52 % ID/g; uptake Kidneys 1 h (HEK-FAP tumor [7]): 1.85 % ID/g; uptake Kidneys 3 h (HEK-FAP tumor [7]): 1.84 % ID/g; uptake Kidneys 6 h (HEK-FAP tumor [7]): 0.55 % ID/g; pIC50 Category (activity) (Human recombinant FAP [4]): A (pIC50 category A stands for pIC50 values >8.0) |
| CCCC[C@H](NC(=O)CCOCCOCCOCCOCCOCCOCCNC(=O)C(CNCCN)CNCCN)C(=O)N[C@H]1CSCc2cccc(c2)CSCC(C(=O)O)NC(=O)[C@H](Cc2ccccc2)NC(=O)[C@H](CCC(N)=O)NC(=O)[C@H]([C@@H](C)O)NC(=O)[C@@H]2CCCN2C(=O)[C@@H]2CCCN2C1=O (stereo partly drawn) [3BP-4551, N4Ac-PEG6-Nle-[Cys(3MeBn)-Pro-Pro-Thr-Gln-Phe-Cys]-OH] | 10 to 79.4 nM | 10 to 79.4 nM | 94.1% | 10 to 79.4 nM | 0.18 %ID/g | 0.07 %ID/g | 0.04 %ID/g | 4.34 %ID/g | 1.18 %ID/g | 0.5 %ID/g | 10.6 %ID/g | 7.31 %ID/g | 4.59 %ID/g | 90.8% |  |
